We go through nine molecules from US20050234065A1, “Dipeptidyl peptidase-IV inhibitors” (Pfizer Inc, priority 2004, published 2005).

The structures appear in SMILES notation. “And” between values parts separate entries of the source, which are not always exact repeats. Equal entries are not always repeated. Structures can show the parent of a compound that is named as a salt.

Data set [1] is described as follows: Madin-Darby Canine Kidney Cells (MDCK) permeability assay. The format is in vitro ADME. Particulars: dog, apparent permeability, apical to basolateral. The procedure: Drug permeability through MDCK cell monolayers is known to be a useful tool as a model for cellular barrier for assessing intestinal epithelial drug transport, and thus to estimate intestinal permeability for orally administered compounds.
In this assay, monolayer cultures, suitable for investigation of compound permeability, were grown on Falcon/BD 96-well membrane inserts. The monolayers were maintained at 37° C. in a 5% CO2 atmosphere at 95% relative humidity until confluent. Apparent permeabilities of test compounds were determined in duplicate at a single concentration of 2 μM in the apical to basolateral direction. The transport investigations were initiated by the addition of the compound (2 μM of a solution containing 0.4% DMSO) to the apical compartment and the plates were maintained under culture conditions during the course of the experiment. The basolateral compartments following 2.5 hours of exposure and the final apical compartments were collected and analyzed for compound content by LC-MS/MS. The apparent permeability of each compound was then calculated.
Compounds of the present invention, such as those of Examples 18 and 27 were used in this assay. By comparison, comparison DPP-IV inhibitor compounds, which are generically disclosed in International Application WO02/076450, were also synthesized, and then used in this assay.

The target of data set [2] is T1, DPP-IV (Homo sapiens, UniProt P27487).
T1 construct: purchased Enzyme Systems Products SPE-01
T1 sequence (P27487 whole entry, species assumed): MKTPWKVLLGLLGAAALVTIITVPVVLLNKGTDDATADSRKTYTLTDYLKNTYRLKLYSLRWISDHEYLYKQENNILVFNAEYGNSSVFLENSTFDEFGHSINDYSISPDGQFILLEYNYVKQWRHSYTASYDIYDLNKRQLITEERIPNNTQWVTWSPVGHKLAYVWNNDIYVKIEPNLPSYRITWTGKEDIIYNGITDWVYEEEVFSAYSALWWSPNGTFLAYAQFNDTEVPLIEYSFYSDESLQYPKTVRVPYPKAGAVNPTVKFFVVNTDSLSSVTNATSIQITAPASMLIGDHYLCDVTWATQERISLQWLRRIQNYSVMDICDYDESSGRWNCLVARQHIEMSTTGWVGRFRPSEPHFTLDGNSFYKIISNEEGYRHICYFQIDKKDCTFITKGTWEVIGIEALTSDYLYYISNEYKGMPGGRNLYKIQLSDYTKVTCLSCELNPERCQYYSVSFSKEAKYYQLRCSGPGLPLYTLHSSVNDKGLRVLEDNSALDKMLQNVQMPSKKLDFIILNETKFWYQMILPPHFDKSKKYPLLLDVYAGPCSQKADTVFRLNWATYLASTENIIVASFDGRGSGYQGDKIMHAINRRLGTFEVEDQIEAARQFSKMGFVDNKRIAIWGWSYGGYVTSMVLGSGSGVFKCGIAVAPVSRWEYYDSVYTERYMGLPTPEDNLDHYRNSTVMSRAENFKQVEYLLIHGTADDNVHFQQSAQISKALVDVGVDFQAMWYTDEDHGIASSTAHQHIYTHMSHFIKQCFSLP
In words: In vitro assay for dipeptidyl peptidase inhibition. The format is biochemical. The settings on record: hydrochloride salts; Gly-Pro-4-methoxy B naphthylamide substrate; overnight at 37° C.; read-out: IC50 (concentration of test compound required for 50% inhibition). On the procedure:
150 μL of an enzyme-substrate solution was pipetted into microtiter wells of a polystyrene 96-well plate, and maintained at 4° C. The enzyme-substrate solution comprised 50 μM Gly-Pro-4-methoxy B naphthylamide HCl in 50 mM Tris assay buffer pH 7.3 containing 0.1M sodium chloride, 0.1% (v/v) Triton and 50 μU/mL DPP-IV (Enzyme Systems Products Cat#SPE-01, DPP-IV 5 mU/mL stock). 5 μL/well of compounds of Formula (I) were added, bringing the final compound of Formula (I) concentrations to 3 μM-10 nM per well.
Controls. Enzyme was omitted from four (4) wells, as a reagent blank. 5 μL of 3 mM Diprotin A was added to four wells as a positive quality control, providing a final Diprotin A concentration of 100 μM. To measure total enzyme activity (i.e. a negative control), without the influence of any compounds of Formula (I), 5 μL of distilled water was added to four wells.
The entire assay was incubated overnight (about 14-18 hours) at 37° C.

In data set [3] the test system is KK/H1J mice. In words: In vivo assay for glucose lowering (oral glucose tolerance test). The settings on record: fasted KK/H1J mice. The source says: The glucose lowering effects of DPP-IV inhibitors for some compounds of the present invention were exemplified in 4-6 week old KK/H1J mice (Jackson Labs) in the context of an oral glucose tolerance test. Oral glucose tolerance tests (“OGTT”) have been in use in humans since, at least, the 1930s, Pincus et al., Am. J. Med. Sci, 188: 782 (1934), and are routinely used in the diagnosis of human diabetes, though not to evaluate the efficacy of therapeutic agents in patients. KK mice have been used to evaluate glitazones (Fujita et al. Diabetes 32:804-810 (1983); Fujiwara et al., Diabetes 37: 1549-48 (1988); Izumi et al. Biopharm Drug. Dispos. 18:247-257 (1997)), metformin (Reddi et al. Diabet. Metabl. 19:44-51 (1993)), glucosidase inhibitors (Hamada et al. Jap. Pharmacol. Ther. 17:17-28 (1988); Matsuo et al. Am. J. Clin. Nutr. 55:314S-317S (1992)), and the extra-pancreatic effects of sulfonylureas (Kameda et al Arzneim. Forsch./Drug Res. 32:39044 (1982); Muller et al. Horm. Metabl. Res. 28:469-487 (1996)).
KK mice are derived from an inbred line first established by Kondo et al. (Kondo et al. Bull. Exp. Anim. 6:107-112 (1957)).
The mice were fasted overnight (about 14-18 hours), but allowed free access to water. […] The blood samples were centrifuged, the plasma collected and analyzed for glucose content on a Roche-Hitachi 912 glucose analyzer. […]

The term Papp A→B denotes the apparent permeability from the apical to the basolateral side of a cell layer. For `Cc1cnc(C(=O)N[C@H]2CC[C@H]([C@H](N)C(=O)N3CCCC3)CC2)cn1` [reference compound], in data set [1], the Papp A→B at 2.5 h, 2 μM was 0.7 ×10⁻⁶ cm/s.

Turning to `N[C@H](C(=O)N1CCCC1)[C@H]1CC[C@H](N2C(=O)c3ccncc3C2=O)CC1` [Example 23, 2-[trans-4-((1S)-1-amino-2-oxo-2-pyrrolidin-1-yl-ethyl)-cyclohexyl]-pyrrolo[3,4-c]pyridine-1,3-dione], the IC50 in data set [2] was 18 nM and ≤ 100 nM. Besides, the “percent (%) inhibition of glucose excursion” value in data set [3] (oral dose level of 5 mg/kg, plasma glucose at t=45 minutes) is listed as “about 65%”.

In the case of `Nc1nccnc1C(=O)N[C@H]1CC[C@H]([C@H](N)C(=O)N2CCCC2)CC1` [Example 18, (S)-3-amino-pyrazine-2-carboxylic acid [trans-4-(1-Amino-2-oxo-2-pyrrolidin-1-yl-ethyl)-cyclohexyl]-amide], the IC50 in data set [2] was at most 100 nM. Besides, in data set [1], the apparent permeability from apical to basolateral (Papp A→B) at 2.5 h, 2 μM is 4.8 ×10⁻⁶ cm/s.

`N[C@H](C(=O)N1CCCC1)[C@H]1CC[C@H](NC(=O)[C@@H]2C[C@@H](O)CN2C(=O)NCc2ccccc2)CC1` [Example 26, (2S,4R)-4-hydroxy-pyrrolidine-1,2-dicarboxylic acid 2-{[trans-4-((1S)-1-Amino-2-oxo-2-pyrrolidin-1-yl-ethyl)-cyclohexyl]-amide}1-benzylamide]: the IC50 in data set [2] was at most 100 nM. Moreover, the “glucose lowering / inhibition of glucose excursion (in words)” value in data set [3] (oral dosing, dose not stated) is given as “did not demonstrate inhibition”.

With `N[C@H](C(=O)N1CCCC1)[C@H]1CC[C@H](NC(=O)c2cnccn2)CC1` [reference compound], the apparent permeability from apical to basolateral (Papp A→B) at 2.5 h, 2 μM in data set [1] came to 1.1 ×10⁻⁶ cm/s.

By melting point is commonly meant the temperature, or range, at which the solid turns liquid. `Nc1nccnc1C(=O)N[C@H]1CC[C@H]([C@H](N)C(=O)N2CCSC2)CC1` (as salt: hydrochloride) [Example 35, (S)-3-amino-pyrazine-2-carboxylic acid [trans-4-(1-amino-2-oxo-2-thiazolidin-3-yl-ethyl)-cyclohexyl]-amide] gave a melting point of 133.4 to 134.7 °C.

With `N#C[C@@H]1CCCN1C(=O)[C@@H](N)[C@H]1CC[C@H](NC(=O)c2cc3cccn3cn2)CC1` [Example 47, pyrrolo[1,2-c]pyrimidine-3-carboxylic acid {trans-4-[(1S)-1-Amino-2-((2S)-2-cyano-pyrrolidin-1-yl)-2-oxo-ethyl]-cyclohexyl}-amide], the IC50 in data set [2] is at most 100 nM.

`Nc1nccnc1C(=O)N[C@H]1CC[C@H]([C@H](N)C(=O)N2CC[S+]([O-])C2)CC1` (stereo partly drawn) [Example 49, 3-amino-pyrazine-2-carboxylic acid {trans-4-[(1S)-1-amino-2-oxo-2-(1-oxo-1×4-thiazolidin-3-yl)-ethyl]-cyclohexyl}-amide]: in data set [2], the IC50 fell in the range of 100 to 500 nM.

In the case of `N[C@H](C(=O)N1CCCC1)[C@H]1CC[C@H](NC(=O)c2nccnc2NCCc2ccccc2)CC1` [Example 27], the IC50 in data set [2] was at most 100 nM. For the same molecule, in data set [1], the Papp A→B at 2.5 h, 2 μM came to 6.2 ×10⁻⁶ cm/s.
